Laboratory results taken from ChEMBL document CHEMBL1140802 (Bioorg Med Chem Lett, 2008).

Assay: Blockade of CNGA1/CNGB1 expressed in Xenopus oocyte by electrophysiological method

SMILES	Kd
CCCCNc1ccc(C(=O)OCCN(CCCC)CCCC)cc1	1.1 µM
CCCCCCCCNc1ccc(C(=O)OCC[N+](C)(C)CC)cc1	1.6 µM
CCCCNc1ccc(C(=O)OCCCN(CCCC)CCCC)cc1	1.3 µM
CCCCNc1ccc(C(=O)OCCCCN(CCCC)CCCC)cc1	1.3 µM
CCCCNc1ccc(C(=O)OCCCN(CC)CC)cc1	5.6 µM
CCCCNc1ccc(C(=O)OCCN(CC)CC)cc1 [P-BUTYLAMINOBENZOYLDIETHYLAMINOETHYL]	8.5 µM
CCCCNc1ccc(C(=O)OCCCN(C)C)cc1	5 µM
CN(C)CCOC(=O)c1ccc(NCc2ccccc2)cc1	16 µM
CCCCCCCCNc1ccc(C(=O)OCCN(C)C)cc1	1.3 µM
CCCCNc1ccc(C(=O)OCCCCN(C)C)cc1	7.1 µM
CN(C)CCOC(=O)c1ccc(NC2CCCCC2)cc1	17 µM
CC(C)CNc1ccc(C(=O)OCCN(C)C)cc1	20 µM
CCCCCCNc1ccc(C(=O)OCCN(C)C)cc1	3.8 µM
